In patent US20250235456A1, “METHODS OF USE FOR AZA-QUINAZOLINE COMPOUNDS” (Iambic Therapeutics, Inc., priority 2024, published 2025):

What was measured:
Assay type in all cases: biochemical
CDK6/Cyclin D3 = CDK6/Cyclin D3 (Homo sapiens (Human), UniProt Q00534); assay: CDK6/Cyclin D3 ADP-Glo Kinase Assay; settings: read-out: CDK6/CyclinD3 IC50
Method: CDK6/Cyclin D3 ADP-Glo Kinase Assay
(§1) The purpose of the CDK6/Cyclin D3 assay is to evaluate the inhibition (% inhibition and IC50 values) in the presence of small molecule inhibitors by using a Luminescent based ADP-Glo assay. CDK6/Cyclin D3 catalyzes the production of ADP from ATP. ADP-Glo assay monitors ADP producing biochemical reactions. ADP-Glo is performed in 2 steps upon completion of kinase reaction: a combined termination of kinase reaction and depletion of remaining ATP in the first step, and conversion of generated ADP to ATP and the newly produced ATP to light output using luciferase/luciferin reaction in the second step. The luminescent signal generated is proportional to the ADP concentration produced and is correlated with the kinase activity. CDK6/Cychin D3 was purchased from Carna. […] The assay was initiated with the addition of ATP-containing substrate solution, following a 30-minute pre-incubation of enzyme and inhibitor at room temperature in the reaction mixture. The reaction was stopped after 90 minutes at room temperature by the addition of 10 μL of ADP-GLO Reagent. After a 90-minute incubation, 20 μL of Kinase Detection Reagent was added. Samples were incubated for 40 minutes, after which plate well luminescence was measured on a Envision microplate reader. The IC50 determinations were made from a plot of the fractional velocity as a function of inhibitor concentration fit to the 4 parameters IC50 equation.

CDK1/Cyclin B1 = CDK1/Cyclin B1 (Homo sapiens (Human), UniProt P06493); assay: CDK1/Cyclin B1 ADP-Glo Kinase Assay
CDK1/Cyclin B1, sequence (P06493 whole entry): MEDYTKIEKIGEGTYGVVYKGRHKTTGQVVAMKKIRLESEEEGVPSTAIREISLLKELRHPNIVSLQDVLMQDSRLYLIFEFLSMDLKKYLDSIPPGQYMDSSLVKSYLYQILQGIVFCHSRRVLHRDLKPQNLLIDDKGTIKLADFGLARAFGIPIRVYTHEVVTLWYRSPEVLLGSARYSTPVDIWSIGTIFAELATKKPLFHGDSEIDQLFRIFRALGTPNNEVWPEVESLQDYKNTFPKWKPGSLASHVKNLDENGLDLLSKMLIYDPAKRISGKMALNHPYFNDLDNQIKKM
CDK1/Cyclin B1, sequence (P14635 whole entry partner): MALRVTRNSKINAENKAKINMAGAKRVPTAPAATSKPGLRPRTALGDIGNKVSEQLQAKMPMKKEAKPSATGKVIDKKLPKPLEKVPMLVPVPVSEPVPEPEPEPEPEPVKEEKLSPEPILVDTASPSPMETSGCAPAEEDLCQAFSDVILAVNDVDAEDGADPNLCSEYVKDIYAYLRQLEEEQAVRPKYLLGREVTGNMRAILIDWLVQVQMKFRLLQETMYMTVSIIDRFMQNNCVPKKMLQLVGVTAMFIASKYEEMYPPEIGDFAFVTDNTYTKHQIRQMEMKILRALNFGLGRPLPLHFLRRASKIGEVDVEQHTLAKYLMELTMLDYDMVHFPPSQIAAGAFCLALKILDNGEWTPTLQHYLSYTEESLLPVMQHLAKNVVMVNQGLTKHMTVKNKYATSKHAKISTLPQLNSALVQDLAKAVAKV
Method: CDK1/Cyclin B1 ADP-Glo Kinase Assay
as §1, with “CDK1/Cyclin Bi” for “the CDK6/Cyclin D3”, “values)” for “values) in the presence”, “CDK1/Cyclin B1” for “CDK6/Cyclin D3”, “CDK1/Cyclin B1” for “CDK6/Cychin D3”, “Carna (Cat 04-102).” for “Carna.”, “90 minute” for “90-minute”

CDK4/Cyclin D1 = CDK4/Cyclin D1 (Homo sapiens (Human), UniProt P11802); assay: CDK4/Cyclin D1 CHEF Assay; settings: AQT; read-out: CDK4/CyclinD1 AQT IC50
CDK4/Cyclin D1, sequence (P11802 whole entry, species assumed): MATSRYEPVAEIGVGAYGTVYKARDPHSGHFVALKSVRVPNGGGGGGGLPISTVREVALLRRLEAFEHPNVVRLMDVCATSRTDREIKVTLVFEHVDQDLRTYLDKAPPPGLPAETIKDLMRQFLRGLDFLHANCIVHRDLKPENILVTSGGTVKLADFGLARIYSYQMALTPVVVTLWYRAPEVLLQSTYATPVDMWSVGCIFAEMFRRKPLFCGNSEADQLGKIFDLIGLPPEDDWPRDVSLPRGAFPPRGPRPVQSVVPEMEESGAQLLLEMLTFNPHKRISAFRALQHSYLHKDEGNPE
CDK4/Cyclin D1, sequence (P24385 whole entry partner, species assumed): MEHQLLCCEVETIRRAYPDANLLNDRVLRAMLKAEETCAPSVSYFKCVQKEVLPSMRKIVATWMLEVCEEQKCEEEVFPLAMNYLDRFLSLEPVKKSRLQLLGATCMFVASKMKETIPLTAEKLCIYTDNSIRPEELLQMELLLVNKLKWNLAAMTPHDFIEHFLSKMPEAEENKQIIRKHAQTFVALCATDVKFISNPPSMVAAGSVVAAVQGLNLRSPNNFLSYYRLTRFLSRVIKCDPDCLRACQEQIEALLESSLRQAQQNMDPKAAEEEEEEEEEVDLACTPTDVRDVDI
Source text: CDK4/Cyclin D1 CHEF Assay
The purpose of CDK4/Cyclin Dl assay is to evaluate the inhibition (% inhibition and IC50 values) of small molecule inhibitors by using a Chelation-Enhance Fluorescence (CHEF) assay. In a CHEF assay, phosphorylation of a peptide substrate results in proportional increase in fluorescence. CHEF kinase assay use peptide substrates containing a synthetic alpha-amino acid with a side chain bearing an 8-hydroxyquinoline derivative (sulfonamido-oxide, Sox). Upon phosphorylation of a nearby serine, threonine or tyrosine and in the presence of Mg(II), the spectral properties of the Sox residue are altered, emitting 485 nm wavelength light when excited with a 360 nm wavelength light source. CDK4/Cyclin D1 catalyzes the phosphoryl transfer to the SOX-labeled substrate peptide AQT0258 from Assayquant Technologies. […] The reaction was initiated with the addition of substrate solution, following a 30-minute pre-incubation of enzyme and inhibitor at 22° C. in the reaction mix. Reactions were allowed to proceed for 3 hrs at 22° C., followed by fluorescence read of the reaction. The IC50 determinations were made from a plot of the fractional velocity as a function of inhibitor concentration fit to the 4 parameters IC50 equation.

CDK6/Cyclin D3, sequence (Q00534 whole entry): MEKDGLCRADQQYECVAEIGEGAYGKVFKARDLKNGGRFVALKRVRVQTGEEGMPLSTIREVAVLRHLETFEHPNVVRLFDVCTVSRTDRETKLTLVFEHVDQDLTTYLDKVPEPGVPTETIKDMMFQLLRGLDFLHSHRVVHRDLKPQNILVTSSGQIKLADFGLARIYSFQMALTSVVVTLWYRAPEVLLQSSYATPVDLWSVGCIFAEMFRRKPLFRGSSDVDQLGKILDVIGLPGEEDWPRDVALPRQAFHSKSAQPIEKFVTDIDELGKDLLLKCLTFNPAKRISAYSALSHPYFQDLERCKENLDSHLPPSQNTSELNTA
CDK6/Cyclin D3, sequence (P30281 whole entry partner): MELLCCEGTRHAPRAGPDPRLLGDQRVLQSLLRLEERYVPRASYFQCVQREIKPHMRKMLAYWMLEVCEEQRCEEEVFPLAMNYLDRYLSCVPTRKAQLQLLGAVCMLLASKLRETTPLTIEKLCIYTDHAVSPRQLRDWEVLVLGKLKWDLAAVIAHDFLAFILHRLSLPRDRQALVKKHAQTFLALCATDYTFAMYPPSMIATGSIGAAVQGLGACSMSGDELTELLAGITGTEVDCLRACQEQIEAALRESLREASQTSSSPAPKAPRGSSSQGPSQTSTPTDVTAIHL

Row | Structure (SMILES) | IC50 (CDK6/Cyclin D3) [µM] | IC50 (CDK1/Cyclin B1) [µM] | IC50 (CDK4/Cyclin D1) [µM]
1 | Cc1cc2cnc(NC3CCN(S(C)(=O)=O)CC3)nc2c(N2CCC3(CCC3(F)F)C2)n1 (stereo not drawn) [Compound 52, 8-(1,1-difluoro-6-azaspiro[3.4]octan-6-yl)-6-methyl-N-(1-(methylsulfonyl)piperidin-4-yl)pyrido[3,4-d]pyrimidin-2-amine] | < 0.2 | < 0.2 | < 0.2
2 | Cc1cc2cnc(NC3CCN(S(C)(=O)=O)CC3)nc2c(N2CCC3(CC3)C2)n1 [Compound 54, 6-methyl-N-(1-(methylsulfonyl)piperidin-4-yl)-8-(5-azaspiro[2.4]heptan-5-yl)pyrido[3,4-d]pyrimidin-2-amine] | < 0.2 | < 0.2 | < 0.2
3 | O=S(=O)(CC1CCC1)N1CCC(Nc2ncc3cc(C(F)F)nc(N4CC5(CCNC5)C4)c3n2)CC1 [Compound 55] | < 0.2 | < 0.2 | < 0.2
4 | Cc1cc2cnc(NC3CCN(S(=O)(=O)C4CC4)CC3)nc2c(N2CCC(OC(F)F)C2)n1 (stereo not drawn) [Compound 58, N-(1-(cyclopropylsulfonyl)piperidin-4-yl)-8-(3-(difluoromethoxy)pyrrolidin-1-yl)-6-methylpyrido[3,4-d]pyrimidin-2-amine] | < 0.2 | < 0.2 | < 0.2
5 | CS(=O)(=O)N1CCC(Nc2ncc3cc(C4CC4)nc(N4CC(F)(F)C5(CNC5)C4)c3n2)CC1 [Compound 60, 6-cyclopropyl-8-(8,8-difluoro-2,6-diazaspiro[3.4]octan-6-yl)-N-(1-(methylsulfonyl)piperidin-4-yl)pyrido[3,4-d]pyrimidin-2-amine] | < 0.2 | < 0.2 | < 0.2
6 | CS(=O)(=O)N1CCC(Nc2ncc3cc(C(F)F)nc(N4CC5(CNCCC5(F)F)C4)c3n2)CC1 [Compound 65] | < 0.2 | < 0.2 | < 0.2
7 | COC1CC2(C1)CN(c1nc(C3CC3)cc3cnc(NC4CCN(S(C)(=O)=O)CC4)nc13)C2 [Compound 75, 6-cyclopropyl-8-(6-methoxy-2-azaspiro[3.3]heptan-2-yl)-N-(1-(methylsulfonyl)piperidin-4-yl)pyrido[3,4-d]pyrimidin-2-amine] | < 0.2 | > 2 | < 0.2
8 | Cc1cc2cnc(NC3CCN(S(C)(=O)=O)CC3)nc2c(N2CC3(CCC(=O)N3)C2)n1 [Compound 77, 2-(6-methyl-2-((1-(methylsulfonyl)piperidin-4-yl)amino)pyrido[3,4-d]pyrimidin-8-yl)-2,5-diazaspiro[3.4] octan-6-one] | < 0.2 | 0.2 to 0.5 | < 0.2
9 | Cc1cc2cnc(NC3CCN(S(C)(=O)=O)CC3)nc2c(N2CC3(CNC(=O)C3)C2)n1 [Compound 81, 2-(6-methyl-2-((1-(methylsulfonyl)piperidin-4-yl)amino)pyrido[3,4-d]pyrimidin-8-yl)-2,6-diazaspiro[3.4] octan-7-one] | 0.2 to 0.5 | 0.2 to 0.5 | < 0.2
10 | Cc1cc2cnc(NC3CCN(S(C)(=O)=O)CC3)nc2c(N2CC3(CCC(=O)NC3)C2)n1 [Compound 82, 2-(6-methyl-2-((1-(methylsulfonyl)piperidin-4-yl)amino)pyrido[3,4-d]pyrimidin-8-yl)-2,6-diazaspiro[3.5] nonan-7-one] | 0.2 to 0.5 | 0.2 to 0.5 | 0.2 to 0.5
11 | Cc1cc2cnc(Nc3ccc(CS(C)(=O)=O)cc3)nc2c(N2CC(O)(C3CC3)C2)n1 [Compound 83, 3-cyclopropyl-1-(6-methyl-2-((4-((methylsulfonyl)methyl)phenyl)amino)pyrido[3,4-d]pyrimidin-8-yl)azetidin-3-ol] | < 0.2 | 0.2 to 0.5 | < 0.2
12 | Cc1cc2cnc(NC3CCN(S(=O)(=O)c4cnn(C)c4)CC3)nc2c(N2CC3(CCNCC3(F)F)C2)n1 [Compound 87, 8-(5,5-difluoro-2,7-diazaspiro[3.5]nonan-2-yl)-6-methyl-N-(1-((1-methyl-1H-pyrazol-4-yl)sulfonyl)piperidin-4-yl)pyrido[3,4-d]pyrimidin-2-amine] | < 0.2 | < 0.2 | < 0.2
13 | Cc1cc2cnc(NC3CCN(S(C)(=O)=O)CC3)nc2c(C2CC(O)(C3CC3)C2)n1 (stereo not drawn) [Compound 88, 1-cyclopropyl-3-(6-methyl-2-((1-(methylsulfonyl)piperidin-4-yl)amino)pyrido[3,4-d]pyrimidin-8-yl)cyclobutan-1-ol] | < 0.2 | 0.2 to 0.5 | < 0.2

Next, values leading:

Row | IC50 (CDK6/Cyclin D3) [µM] | IC50 (CDK1/Cyclin B1) [µM] | IC50 (CDK4/Cyclin D1) [µM] | Structure (SMILES)
14 | < 0.2 | > 2 | < 0.2 | Cc1cc2cnc(NC3CCN(S(C)(=O)=O)CC3)nc2c(N2CCC3(C2)CC(F)(F)C3)n1 [Compound 53, 8-(2,2-difluoro-6-azaspiro[3.4]octan-6-yl)-6-methyl-N-(1-(methylsulfonyl)piperidin-4-yl)pyrido[3,4-d]pyrimidin-2-amine]
15 | < 0.2 | < 0.2 | < 0.2 | Cc1cc2cnc(NC3CCN(S(=O)(=O)C4CC4)CC3)nc2c(N2CC(O)(C3CC3)C2)n1 [Compound 56, 3-cyclopropyl-1-(2-((1-(cyclopropylsulfonyl)piperidin-4-yl)amino)-6-methylpyrido[3,4-d]pyrimidin-8-yl)azetidin-3-ol]
16 | < 0.2 | < 0.2 | < 0.2 | Cc1cc2cnc(NC3CCN(S(=O)(=O)C4CC4)CC3)nc2c(N2CC3(CCNCC3(F)F)C2)n1 [Compound 61, N-(1-(cyclopropylsulfonyl)piperidin-4-yl)-8-(5,5-difluoro-2,7-diazaspiro[3.5]nonan-2-yl)-6-methylpyrido[3,4-d]pyrimidin-2-amine]
17 | < 0.2 | < 0.2 | < 0.2 | Cc1cc2cnc(NC3CCN(S(=O)(=O)C4CC4)CC3)nc2c(N2CC(F)(F)C3(CNC3)C2)n1 [Compound 62, N-(1-(cyclopropylsulfonyl)piperidin-4-yl)-8-(8,8-difluoro-2,6-diazaspiro[3.4]octan-6-yl)-6-methylpyrido[3,4-d]pyrimidin-2-amine]
18 | < 0.2 | 0.2 to 0.5 | < 0.2 | COC1CC2(C1)CN(c1nc(C)cc3cnc(NC4CCN(S(=O)(=O)C5CC5)CC4)nc13)C2 [Compound 71, N-(1-(cyclopropylsulfonyl)piperidin-4-yl)-8-(6-methoxy-2-azaspiro[3.3]heptan-2-yl)-6-methylpyrido[3,4-d]pyrimidin-2-amine]
19 | < 0.2 | 0.2 to 0.5 | < 0.2 | COC1CC2(C1)CN(c1nc(C)cc3cnc(NC4CCN(S(C)(=O)=O)CC4)nc13)C2 [Compound 76, 8-(6-methoxy-2-azaspiro[3.3]heptan-2-yl)-6-methyl-N-(1-(methylsulfonyl)piperidin-4-yl)pyrido[3,4-d]pyrimidin-2-amine]
20 | 0.2 to 0.5 | 0.2 to 0.5 | < 0.2 | Cc1cc2cnc(NC3CCN(S(=O)(=O)C4CC4)CC3)nc2c(N2CC3(C2)CC(C)(O)C3)n1 [Compound 78, 2-(2-((1-(cyclopropylsulfonyl)piperidin-4-yl)amino)-6-methylpyrido[3,4-d]pyrimidin-8-yl)-6-methyl-2-azaspiro[3.3]heptan-6-ol]
21 | 0.2 to 0.5 | 0.2 to 0.5 | < 0.2 | Cc1cc2cnc(NC3CCN(S(C)(=O)=O)CC3)nc2c(N2CC3(C2)CC(C)(O)C3)n1 [Compound 79, 6-methyl-2-(6-methyl-2-((1-(methylsulfonyl)piperidin-4-yl)amino)pyrido[3,4-d]pyrimidin-8-yl)-2-azaspiro[3.3]heptan-6-ol]
